Data as given in patent US20220362330A1, “Compositions and Methods for Increasing Epithelial Barrier Function” (The Board of Trustees of the Leland Stanford Junior …, priority 2019, published 2022).
“Also recorded” adds a separate entry of the source.

Assays:
[1] = tested on: upstream regulators EFNA3 and ROCK2; assay: Genome-wide gene expression and pathway analysis of vaginal tissue; assay type: in vivo; settings: DMPA-treated vs estrus-stage mice
Protocol: The above results established changes that occur in genital mucosa of women initiating DMPA are recapitulated in DMPA-treated mice, and these that changes include lower expression of the cell-cell adhesion molecule DSG1 and increased genital mucosal permeability. To investigate mechanisms for DMPA-mediated downregulation of DSG1, genome-wide gene expression studies were performed with vaginal tissue from estrus-stage mice (i.e., mice resistant to genital HSV infection) and DMPA-treated mice (i.e., mice highly susceptible to this virus). […] EFNA molecules are involved in pathways that induce DSG1 expression and regulate epithelial cell responses and formation of intercellular adhesion complexes, and Eph receptors stimulate ROCK2-mediated actinomyosin contractility that increases keratinocyte differentiation via DSG1 upregulation. These gene expression analyses thus identified a potential mechanism by which progestins alter E-regulated expression of EFNA3 and ROCK2 and levels of DSG1. As EFNA3, DSG1, and ROCK2 are basally expressed in human genital epithelium, capacity of this E-regulated pathway to promote genital mucosal integrity in mice may also extend to results seen in the human female genital tract.

EphrinA3 (EFNA3) = assay: EphrinA3 gene and protein expression in vaginal tissue (RT-PCR, immunohistochemistry); assay type: in vivo; settings: DMPA-treated vs estrus-stage mice
Excerpt: Vaginal tissue was harvested from mice in estrus, DMPA-treated mice, and mice treated with DMPA and Premarin vaginal cream were placed in RNAlater® for RNA isolation or embedded in formaldehyde for histology analysis. FIG. 5A is a bar graph showing gene expression for Ephrin A3 (Efna3) relative to pyruvate carboxylase, a housekeeping gene.
To corroborate microarray results, EphrinA3 gene and protein expression were compared in estrus-stage and DMPA-treated mice. To also evaluate effects of exogenous estrogen, other DMPA-treated mice were treated intravaginally with the estrogen cream Premarin. […] The vaginal tissue was assessed for DSG1 protein levels using immunofluorescent staining and confocal microscopy.
Human ectocervical and murine vaginal tissues were immediately immersed in 1 mL of RNAlater® (Qiagen), stored for 24 h at 4° C., and stored long-term at −80° C. RNA isolated using the RNeasy Lipid Tissue Kit (Qiagen) using manufacturer's instructions was re-suspended in nuclease-free water and quantified using a NanoDrop spectrophotometer (Thermo Scientific). […] To define relative gene expression, 100 ng of RNA was mixed with TaqMan® RNA-to-Ct™ 1-Step Kit and adequate primer (final volume of 10 μL/well) using manufacturer's instructions (Life Technologies). qRT-PCR was performed using a Quantstudio3 Thermal Cycler, and data analyzed via Quanstudio Software (Applied Biosystems). […]

desmocollin-1 (DSC1) = assay: qRT-PCR of Dsc1 gene expression in vaginal tissue; assay type: in vivo, mice; settings: progestin-treated mice vs mice in estrus
Protocol: (§1) To define progestin-mediated changes in mucosal permeability, vaginal tissue from mice in estrus, diestrus, or after DMPA or LNG treatment was used to measure expression of the desmosomal cadherins desmoglein-1a (DSG1a) and desmocollin-1 (DSC1).
(§2) Human ectocervical and murine vaginal tissues were immediately immersed in 1 mL of RNAlater® (Qiagen), stored for 24 h at 4° C., and stored long-term at −80° C. RNA isolated using the RNeasy Lipid Tissue Kit (Qiagen) using manufacturer's instructions was re-suspended in nuclease-free water and quantified using a NanoDrop spectrophotometer (Thermo Scientific). The following mouse primers were utilized: desmocollin 1 (Mm00496525_ml), desmoglein-1α (Mm00809994_s1), ephrinA3 (Mm01212723_g1) and pyruvate carboxylase (Mm00500992_ml) as housekeeping reference gene (all from Thermo Scientific). These human primers were used: desmoglein-1 (Hs00355084_m1) and glucose-6-phosphate isomerase (Hs00976711_m1) as a housekeeping reference gene. To define relative gene expression, 100 ng of RNA was mixed with TaqMan® RNA-to-Ct™ 1-Step Kit and adequate primer (final volume of 10 μL/well) using manufacturer's instructions (Life Technologies). qRT-PCR was performed using a Quantstudio3 Thermal Cycler, and data analyzed via Quanstudio Software (Applied Biosystems).

genital mucosal tissue = assay: Entry of CFSE-labeled splenocytes into genital mucosal tissue; assay type: in vivo; settings: CFSE-labeled splenocytes ivag, 12 hours; vs estrus-stage mice
Protocol: Estrus-stage or DMPA-treated mice were administered CFSE-labeled splenocytes intravaginally and euthanized 12 hours later. Relative leukocyte infiltration of vaginal mucosal tissue in estrus-stage vs. DMPA-treated mice was evaluated by confocal microscopy.
These findings established progestin mediated increases in mucosal permeability promote both passive entry of low molecular weight molecules and incursion of larger-sized cells that are more reliant on energy-dependent processes.

desmoglein-1a (DSG1a) = assay: qRT-PCR of Dsg1a gene expression in vaginal tissue; assay type: in vivo, mice; settings: progestin-treated mice vs mice in estrus
Protocol: as §1, §2

[2] = tested on: vaginal microbiota / pro-inflammatory mediators; assay: Bacteria and inflammation in genital mucosa; assay type: in vivo, mice
Excerpt: While prior clinical studies identified increased inflammation in the genital tracts of women using DMPA, the underlying mechanism for this effect had been undefined. Because DMPA increased genital mucosal permeability, it was posited DMPA increases inflammation by promoting entry of the vaginal microbiota into mucosal tissue.

[3] = tested on: genital mucosal permeability; assay: Human tissue permeability assay on biopsy specimens; design: species or system women
Protocol: To confirm the relevance of the mouse model findings, DMPA-mediated changes in mucosal permeability was explored with ectocervical biopsies from women using no hormonal contraceptive and again 1 month after they initiated DMPA.
[…] biopsy specimens obtained from women were placed in transport media, transferred into sterile 96-well plates, and incubated 45 minutes in a 20 μL solution of PBS containing LY and DR (at the same concentrations used in mouse studies). Tissue was likewise fixed and embedded as detailed for mice. Stratified squamous epithelium, lamina propria, and connective tissue were identified using light microscopy (at 100× magnification), while images obtained at 400× magnification were used to quantify penetration of LY into ectocervical tissue.

markers of inflammation = assay: Expression of markers of inflammation in ectocervical biopsies from women; assay type: in vivo; settings: 1 month after initiating DMPA vs no hormonal contraceptive
[4] = DMPA-treated vs. estrus-stage mice

SMILES: CC(=O)O[C@]1(C(C)=O)CC[C@H]2[C@@H]3C[C@H](C)C4=CC(=O)CC[C@]4(C)[C@H]3CC[C@@]21C [DMPA]
- effect on signaling pathways (pathway analysis) [1]: inhibition of signaling pathways that involve ephrin-A3 (EFNA3) and ROCK2
- Expr Log Ratio ([1]; upstream regulator EFNA3): −2.593
- expression of EphrinA3 in vaginal mucosal tissue (EphrinA3 (EFNA3)): dramatically impair expression; also recorded: reduces EFNA3 expression
- DSC1 gene expression in vaginal tissue (desmocollin-1 (DSC1)): decrease gene expression levels
- leukocyte entry into genital tissue (genital mucosal tissue): facilitates entry of leukocytes into genital mucosal tissue; also recorded: promoted leukocyte entry into genital tissue
- DSG1a gene expression in vaginal tissue (desmoglein-1a (DSG1a)): decrease gene expression levels
- Gram-negative bacteria in the mucosa [2, 4]: more Gram-negative bacteria
- levels of pro-inflammatory mediators in the mucosa [2, 4]: higher levels of pro-inflammatory mediators
- inflammation ([2]; germ-free mice): not inflammation
- mucosal permeability ([3]; specimens collected after initiating hormonal contraceptive): increased mucosal permeability
- correlation between serum DMPA levels and genital mucosal permeability ([3]; women): strong positive correlation
- expression of markers of inflammation in ectocervical tissue (markers of inflammation): significantly higher
